Test results: patent US20070213359A1 (ACADIA Pharmaceuticals Inc., priority 2005, published 2007)
Read-outs that look alike come from different tables or passages of the source.

Biological target: Ghrelin receptor (Homo sapiens, UniProt Q92847)
Assay: Receptor Selection and Amplification Technology (R-SAT) assay
Type: cell-based
Set-up: expressed in transfected cells; host or cells: NIH3T3
Conditions: for IC50: '—' not defined (nd used separately), read-out: RSAT pIC50 (converted); for Emax: read-out: RSAT Eff(%)
[1] = negative logarithm of ligand concentration causing 50% inhibition of constitutive receptor response, transfected NIH3T3 cells
[2] = percent inhibition at saturating ligand, normalized to reference ligand Substance P analog = 100%

Ghrelin receptor, sequence (Q92847 whole entry): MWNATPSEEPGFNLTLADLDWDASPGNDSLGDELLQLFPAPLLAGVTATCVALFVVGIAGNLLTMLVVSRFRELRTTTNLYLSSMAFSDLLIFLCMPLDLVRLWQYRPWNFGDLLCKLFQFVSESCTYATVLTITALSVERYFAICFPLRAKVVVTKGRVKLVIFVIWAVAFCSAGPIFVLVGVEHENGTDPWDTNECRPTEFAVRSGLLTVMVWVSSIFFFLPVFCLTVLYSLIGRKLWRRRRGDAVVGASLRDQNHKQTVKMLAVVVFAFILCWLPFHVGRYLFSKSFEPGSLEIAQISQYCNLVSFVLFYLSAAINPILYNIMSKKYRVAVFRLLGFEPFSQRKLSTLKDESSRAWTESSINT

Row | SMILES | IC50 [1] | Emax [2] | Emax | also measured
1 | CC(=O)c1cn(CCCN2C3CCC2CC(CCc2ccccc2)C3)c2c(C)cccc12 (stereo not drawn) | 0.00631 µM | 105% | – | –
2 | CC(C)CC(=O)c1cn(CCCN2CCC(Oc3ccc(Cl)cc3)CC2)c2ccccc12 | 0.316 µM | 112% | – | –
3 | COc1cccc2c(C(C)=O)cn(CCCN3CCC(N(C)C(C)=O)C3)c12 (stereo not drawn) | 2.51 µM | 60% | – | –
4 | COc1cccc2c(C#N)cn(CCCN3CCC(N4C(=O)Cc5ccccc54)CC3)c12 | – | – | – | RSAT Eff(%): 33%
5 | CC(=O)c1cn(CCCN2CCN(CCOc3ccc(Cl)cc3)CC2)c2c(Cl)cccc12 | – | – | 32% | –
6 | COc1cccc2c(C(C)=O)cn(CC(C)CN3C4CCC3CC(CCc3ccccc3)C4)c12 (stereo not drawn) | 0.0501 µM | – | 120% | –
7 | CC(=O)c1cn(CCCN2C3CCC2CC(Oc2ccc(F)cc2)C3)c2c(Br)cccc12 (stereo not drawn) | 0.0158 µM | 81% | – | –
8 | CCc1cccc2c(C(C)=O)cn(CCCN3CCN(Cc4ccc(Cl)cc4Cl)CC3)c12 | 0.251 µM | 106% | – | –
9 | COc1cccc2c(C(C)=O)cn(CCCN3CCC(Oc4ccc(F)cc4)CC3)c12 [drawing 256] | – | – | 119% | IC50 ([…]): 0.00398 µM
10 | COc1cccc2c(C(C)=O)cn(CCCN3CCC4(CC3)C(=O)NCN4c3ccccc3)c12 | 0.316 µM | – | 38% | –
11 | COc1ccccc1C1CCN(CCCn2cc(C(=O)NCc3cccc(C)c3)c3cccc(OC)c32)CC1 | – | – | 127% | IC50 ([…]): 0.126 µM
12 | CCCCC1CCN(CCn2cc(C(C)=O)c3ccccc32)CC1 | – | – | 23% | –
13 | CC(=O)c1cn(CCCN2CCC(Cc3ccccc3Cl)C2)c2c(Cl)cccc12 (stereo not drawn) | – | – | 37% | –
14 | CC(=O)c1c(C)n(CCCN2CCCC(Oc3ccc(Cl)cc3)C2)c2c(Br)cccc12 (stereo not drawn) | – | – | 24% | –
15 | CCCCC1CCN(CCCn2cc(C(C)=O)c3ccc(Br)cc32)CC1 | 3.16 µM | 93% | – | –
16 | CC(=O)c1cn(CCCN2CCC(c3nc(-c4ccncc4)no3)CC2)c2c(Cl)cccc12 | 0.251 µM | 108% | – | –
17 | CCCOC1CCN(CC(C)Cn2c(=O)sc3ccccc32)CC1 (stereo not drawn) | 2.51 µM | 71% | – | –
18 | COc1cccc2c(C(C)=O)cn(CC(C)CN3CCC(c4nc(-c5ccncc5)no4)CC3)c12 (stereo not drawn) | – | – | 78% | –
19 | COc1cccc2c(C(=O)NCc3cccc(Cl)c3)cn(CCCN3CCC(Oc4ccccc4Cl)CC3)c12 | – | – | 125% | IC50 ([…]): 0.126 µM
20 | COc1ccc2c(c1)c(C(C)=O)cn2CCCN1CCC(Oc2ccccc2Cl)CC1 | 1 µM | 95% | – | –
21 | CCCCC[C@H]1C[C@H]2CC[C@@H](C1)N2CCCn1cc(C(C)=O)c2cccc(C)c21 | 0.251 µM | 105% | – | –
22 | O=C(c1cn(CCCN2CCC(Oc3ccccc3Cl)CC2)c2ccccc12)C(F)(F)F | 2 µM | 81% | – | –
23 | CC(=O)c1cn(CCCN2CCC(Oc3ccccc3Cl)CC2)c2ccccc12 [drawing 499] | – | 105% | – | –
24 | COc1cccc2c(C(=O)c3ccccc3)cn(CCCN3CCC4(CC3)CC(=O)c3ccccc3O4)c12 | – | – | 60% | IC50 ([…]): 0.2 µM
25 | COc1cccc2c(C(=O)NCc3cccc(C)c3)cn(CCCN3C4CCC3CC(Oc3ccc(F)cc3)C4)c12 (stereo not drawn) | 0.0158 µM | – | – | RSAT Eff(%) [2]: 112%
26 | CC(=O)c1cn(CCCN2CCN(c3ncc(C(F)(F)F)cc3Cl)CC2)c2ncccc12 | 0.0631 µM | 91% | – | –
27 | CC(=O)c1cn(CC(O)CN2CCN(C(C)c3ccccc3)CC2)c2ccccc12 (stereo not drawn) | – | – | 23% | –

Row | SMILES | IC50 [1] | Emax [2] | Emax | also measured
28 | COc1cccc2c(C(=O)NCc3cccc(C)c3)cn(CCCN3CCCC(Oc4ccc(Cl)cc4)C3)c12 (stereo not drawn) | – | – | 14% | –
29 | CCc1cccc2c(C(C)=O)cn(CCCNC3Cc4ccccc4C3)c12 | 0.158 µM | 98% | – | –
30 | COc1cccc2c(C(C)=O)cn(CC(C)CN3CCC4(CC3)CC(=O)c3ccccc3O4)c12 (stereo not drawn) | – | – | 55% | –
31 | COc1cccc2c(C#N)cn(CCCN3CCC(c4nc(-c5ccncc5)no4)CC3)c12 | – | 40% | – | –
32 | CC(=O)CCc1cn(CCCN2CCC(Oc3ccc(F)cc3)CC2)c2ccccc12 | 1.26 µM | 80% | – | –
33 | CC(C)CC(=O)c1cn(CCCN2CCC(C(=O)c3ccccc3)CC2)c2ccccc12 | 2 µM | 67% | – | –
34 | CC(=O)c1cn(CCCNC2Cc3ccccc3C2)c2c(C#N)cccc12 | – | – | 6% | –
35 | CC(=O)c1cn(CCCN2C3CCC2CC(OCC2CC2)C3)c2ccc(Br)cc12 (stereo not drawn) | 0.251 µM | 102% | – | –
36 | COc1cccc2c(C(=O)NCc3cccc(Cl)c3)cn(CCCN3CCC4(CC3)CC(=O)c3ccccc3O4)c12 | – | – | 7.8% | IC50 ([…]): 0.0631 µM
37 | CC(=O)c1cn(CCCN2C3CCC2CC(CC(=O)c2ccc(Cl)cc2)C3)c2c(Cl)cccc12 (stereo not drawn) | 0.501 µM | 41% | – | –
38 | COc1cccc2c(C(C)=O)cn(CC(C)CNCCOc3ccccc3)c12 (stereo not drawn) | – | – | 29% | –
39 | CC(=O)c1cn(CCCN2CCN(c3nc(-c4cccnc4)no3)CC2)c2c(C)cccc12 | – | – | 110% | IC50 ([…]): 0.2 µM
40 | COc1ccc2[nH]c3c(c2c1)CCN(CCCCn1cc(C(C)=O)c2ccccc21)C3 | – | 9% | – | –
41 | O=C(c1cn(CCCN2CCCC(Cc3ccccc3Cl)C2)c2ncccc12)C(F)(F)F (stereo not drawn) | – | 27% | – | –
42 | CC(C)CC(=O)c1cn(CCCN2C3CCC2CC(OCC2CC2)C3)c2ccccc12 (stereo not drawn) | 0.158 µM | 129% | – | –
43 | COc1ccc2c(c1)c(C(C)=O)cn2CCCN1CCN(C(C)c2ccccc2)CC1 (stereo not drawn) | 0.501 µM | 77% | – | –
44 | CC(=O)c1cn(CCCN2CCC(c3nc(-c4cccnc4)no3)CC2)c2c(C)cccc12 | 0.2 µM | 103% | – | –
45 | CC(=O)c1cn(CCCN2CCN(CCOc3ccc(Cl)cc3)CC2)c2c(C)cccc12 | – | – | 53% | –
46 | COc1cccc2c(C#N)cn(CCCN3CCN(CCOc4ccc(Cl)c5ccccc45)CC3)c12 | – | 21% | – | –
47 | CC(=O)c1cn(CC(C)CN2CCC(c3nc4ccccc4s3)CC2)c2ccccc12 (stereo not drawn) | 2.51 µM | 78% | – | –
48 | COc1cccc2c(C(=O)Cc3ccccc3)cn(CCCN3CCN(CCOc4ccc(Cl)c5ccccc45)CC3)c12 | – | – | 46% | –
49 | O=C(c1cn(CCCN2CCCN(Cc3ccc(F)cc3)CC2)c2ncccc12)C(F)(F)F | 0.1 µM | 83% | – | –
50 | CC(=O)c1cn(CCCN2CCC(c3nc4ccccc4s3)CC2)c2ccccc12 [drawing 466] | 0.126 µM | – | – | RSAT Eff(%) [2]: 99%
51 | CC(C)CNC(=O)c1cn(CCCN2CCC(Oc3ccc(F)cc3)CC2)c2ccccc12 | 0.501 µM | – | 94% | –
52 | CC(=O)c1cn(CCCN2CCCN(CCc3ccccc3)CC2)c2c(C)cccc12 | – | – | 102% | IC50 ([…]): 0.1 µM
53 | CCCCC(=O)c1cn(CCCN2CCC(C(=O)c3ccccc3)CC2)c2ccc(OC)cc12 | 0.794 µM | – | 98% | –
54 | COc1ccc2c(c1)c(C(C)=O)cn2CCCN1C2CCC1CC(OCC1CC1)C2 (stereo not drawn) | 31.6 µM | 74% | – | –

Row | SMILES | IC50 [1] | Emax [2] | Emax | also measured
55 | CC(=O)c1cn(CCCN2CCC(c3nc(-c4ccncc4)no3)CC2)c2ncccc12 | – | 88% | – | –
56 | CCC(=O)c1cn(CCCN2CCC(Cc3ccccc3)CC2)c2ccccc12 | 1.58 µM | 109% | – | –
57 | CCCCC(=O)c1cn(CCCN2CCN(C(C)c3ccccc3)CC2)c2ccc(OC)cc12 (stereo not drawn) | 1.26 µM | 81% | – | –
58 | CCC(=O)c1cn(CCCN2CCC(Oc3ccccc3Cl)CC2)c2ccccc12 | 0.316 µM | 76% | – | –
59 | COc1cccc2c(C(=O)NCc3cccc(Cl)c3)cn(CCCN3CCCC(Oc4ccc(Cl)cc4)C3)c12 (stereo not drawn) | – | – | 31% | –
60 | CC(=O)c1cn(CC(O)CN2CCC(Oc3ccccc3Cl)CC2)c2ccccc12 (stereo not drawn) | 3.16 µM | 69% | – | –
61 | COc1ccc2c(C(C)=O)cn(CCCN3C4CCC3CC(OC3=CC=C(Cl)CC3)C4)c2c1 (stereo not drawn) | 0.501 µM | 108% | – | –
62 | CC(=O)c1cn(CCCN2C3CCC2CC(CC(=O)c2ccccc2)C3)c2c(Cl)cccc12 (stereo not drawn) | – | – | 85% | IC50 ([…]): 1.58 µM
63 | CCCCC1CCN(CCCn2cc(CCC(C)=O)c3ccccc32)CC1 | 0.631 µM | 76% | – | –
64 | COc1cccc2c(C(=O)NCC(C)C)cn(CCCN3C4CCC3CC(CCc3ccc(Cl)cc3)C4)c12 (stereo not drawn) | – | – | 85% | IC50 ([…]): 0.0631 µM
65 | CC(=O)c1cn(CCCN2CCC(Oc3ccccc3Cl)CC2)c2cc(Br)ccc12 | 5.01 µM | 67% | – | –
66 | CC(=O)c1cn(CCCN2CCN(C(C)c3ccccc3)CC2)c2cc(Br)ccc12 (stereo not drawn) | 0.251 µM | 93% | – | –
67 | COc1cccc2c(C#N)cn(CCCN3CCN(CCOc4ccc(Cl)cc4)CC3)c12 | – | -23% | – | –
68 | CC(=O)c1cn(CCCN2CCC(Oc3ccc(F)cc3)CC2)c2cc(Br)ccc12 | 2.51 µM | 64% | – | –
69 | CC(=O)CCc1cn(CCCN2CCC(c3nc4ccccc4s3)CC2)c2ccccc12 | 2.51 µM | 84% | – | –
70 | CC(c1ccccc1)N1CCN(CCCn2cc(C(=O)C(F)(F)F)c3ccccc32)CC1 (stereo not drawn) | 0.251 µM | 92% | – | –
71 | CCc1cccc2c(C(C)=O)cn(CCCN3CCN(c4ncc(C(F)(F)F)cc4Cl)CC3)c12 | 0.158 µM | 90% | – | –
72 | COc1ccc2c(C(C)=O)cn(CCCN3CCC(Oc4ccc(F)cc4)CC3)c2c1 | 0.158 µM | 70% | – | –
73 | CC(=O)c1cn(CCCN2CCN(C(C)c3ccccc3)CC2)c2ccc(Br)cc12 (stereo not drawn) | 1.26 µM | 72% | – | –
74 | O=C(c1cn(CCCN2CCN(CCOc3ccc(Cl)cc3)CC2)c2ncccc12)C(F)(F)F | – | 38% | – | –
75 | COc1cccc2c(C(=O)C3CC3)cn(CCCN3CCC(N4C(=O)Cc5ccccc54)CC3)c12 | – | – | – | RSAT Eff(%): 110%; IC50 ([…]): 0.0398 µM
76 | COc1ccc2c(c1)c(C(C)=O)cn2CCCN1CCC(C(=O)c2ccccc2)CC1 | 1 µM | 72% | – | –
77 | O=C(c1cn(CCCN2CCC(Oc3ccc(F)cc3)CC2)c2ccccc12)C(F)(F)F | 0.794 µM | 75% | – | –
78 | COc1ccc2c(c1)c(C(C)=O)cn2CCCN1CCC(Oc2ccc(F)cc2)CC1 | 0.631 µM | 58% | – | –
79 | CCC(=O)c1cn(CCCN2CCC(c3ccccc3OC)CC2)c2ccccc12 | 0.316 µM | 59% | – | –
80 | CC(=O)c1c(C)n(CCCN2CCCN(CCc3ccccc3)CC2)c2c(Br)cccc12 | – | – | 42% | IC50 ([…]): 0.501 µM
